# Experimental data as given in article PMC8615111, “Phenolic Thiazoles with Antioxidant and Antiradical Activity. Synthesis, In Vitro Evaluation, Toxicity, Electrochemical Behavior, Quantum Studies and Antimicrobial Screening” (Antioxidants, 2021).
# Read-outs that look alike come from different tables or passages of the source.
# Assays:
# Cu^2+ chelation assay = format: biochemical
# [1] = ABTS˙^+ radical scavenging assay; format: biochemical; details: for IC50: ABTS˙^+ scavenging
# Procedure: The assay was based on the decolorization of green (2,2′-azinobis-(3-ethylbenzothiazoline-6-sulfonic acid) ABTS˙^+ to ABTS, on the principle reported by Re et al. and was carried out according to our previously published research.
# Later, 1950 µL of ABTS˙^+ reagent was added to all cuvettes and they were shaken for well over 10 min in the dark at room temperature. The absorbance of the resulted solutions found in cuvettes was determined spectrophotometrically at λ = 734 nm. The ABTS scavenging activity of the compounds was calculated using the following Equation (1):(1) ABTS scavenging (%)=control absorbance−sample absorbance/control absorbance×100
# E. coli ATCC 25922 = assay: Antimicrobial activity, modified microdilution; format: cell-based; details: Escherichia coli, ATCC25922
# Procedure: (§1) For evaluating the antimicrobial activity of the compounds, […] aerobic microbial strains were used: S. aureus ATCC 25923, S. pyogenes ATCC 19615, P. aeruginosa ATCC 27853, S. enterica ISM 83/37, S. typhimurium ATCC 14028, E. coli ATCC 8739, E. coli ATCC 25922, and C. albicans ATCC 102310 obtained from Food Biotechnology Laboratory, Life Sciences Institute, University of Agricultural Sciences, and Veterinary Medicine Cluj Napoca, where the experiment was performed. The antimicrobial activity of the compounds was determined using a modified microdilution technique, and the followed protocol was previously reported.
# (§2) The antimicrobial activity of the final compounds, against seven aerobic microbial strains (S. aureus ATCC 25923, S. pyogenes ATCC 19615, P. aeruginosa ATCC 27853, S. enterica ISM 83/37, S. typhimurium ATCC 14028, E. coli ATCC 8739, E. coli ATCC 25922), and a fungal strain (C. albicans ATCC 102310), was determined using a modified microdilution technique.
# (§3) The results of the antimicrobial activity evaluation of the compounds, in comparison to norfloxacin and chloramphenicol used as standard antibiotics and fluconazole used as reference antifungal, are depicted in Table 10.
# S. aureus ATCC 25923 = assay: Antimicrobial activity, modified microdilution; format: cell-based; details: Staphylococcus aureus, ATCC25923
# Procedure: as §1, §2, §3
# P. aeruginosa ATCC 27853 = assay: Antimicrobial activity, modified microdilution; format: cell-based; details: Pseudomonas aeruginosa, ATCC27853
# Procedure: as §1, §2, §3
# S. enterica ISM 83/37 = assay: Antimicrobial activity, modified microdilution; format: cell-based; details: Salmonella enterica, ISM83/37
# Procedure: as §1, §2, §3
# [2] = tested on: S. typhimurium ATCC 14028; assay: Antimicrobial activity, modified microdilution; format: cell-based; details: Salmonella enterica
# Procedure: as §1, §2, §3
# E. coli ATCC 8739 = assay: Antimicrobial activity, modified microdilution; format: cell-based; details: Escherichia coli, ATCC8739
# Procedure: as §1, §2, §3
# S. pyogenes ATCC 19615 = assay: Antimicrobial activity, modified microdilution; format: cell-based; details: Streptococcus pyogenes, ATCC19615
# Procedure: as §1, §2, §3
# C. albicans ATCC 102310 = assay: Antifungal activity, modified microdilution; format: cell-based; details: Candida albicans, ATCC102310
# Procedure: as §1, §2, §3
# [3] = Ferric ions (Fe^3+) reducing antioxidant power by cyclic voltammetry
# Procedure: The evaluated compounds’ stock solutions used were prepared at a concentration of 5 mM. To test their redox properties, dilutions of 0.5 mM and 2 mM were prepared in 0.1 M HClO4 electrolyte (pH = 1.2). Screen-printed electrodes (SPEs; Metrohm DropSens, Oviedo, Spain) (planar electrodes) with graphite and gold working electrodes were used. Cyclic voltammetry (CV) and differential pulse voltammetry (DPV) were the electrochemical methods applied. The experimental conditions for each test are mentioned near the corresponding data (Appendix A).
# The antioxidant properties were evaluated in terms of their activity against some free radicals, and other compounds reported in the literature, relevant for this purpose, such as: • ferric ions (Fe^3+)—used to test the reduction of the antioxidant character of the compounds; • DPPH˙ free radical– used to test the scavenging effect of the compounds on this radical; • hydrogen peroxide (H2O2)—used to test the scavenging effect of the synthesized molecules on this compound; • 2,2,6,6-tetramethylpiperidinyl-1-oxy (TEMPO)—used to test the scavenging effect of the synthesized molecules on this compound.
# This method is based on the evaluation of the influence of the compound measured by the direct reduction of Fe[(CN)6]^3− to […]. This assay is based on the reduction of Fe^3+ to Fe^2+ due to the action of antioxidants. Based on the electrochemical behavior of the studied compounds, the interaction of Fe^3+ was followed by cyclic voltammetry (CV) via the possible changes of redox peaks characteristic for Fe^3+/Fe^2+ transition after the interaction with antioxidants (if any).
# From the voltammogram of potassium ferricyanide it can be observed that the one-electron transfer process Fe^3+/Fe^2+ occurs at 0.247 V/ 0.150 V in acidic media (red) (Figure A1; Table A1).
# Each compound presents its characteristic peaks (blue line in each figure).
# [4] = compound + Fe^3+/Fe^2+, 1st Ered
# [5] = compound + Fe^3+/Fe^2+, 1st Ired
# [6] = compound + Fe^3+/Fe^2+, 2nd Eox
# [7] = compound + Fe^3+/Fe^2+, 2nd Iox column
# [8] = compound alone 0.5 mM in 0.1 M HClO4, 2nd Iox column
# [9] = compound alone 0.5 mM in 0.1 M HClO4, 3rd Iox column
# [10] = compound 0.5 mM + Fe^3+/Fe^2+ (0.5 mM potassium ferricyanide), 1st Eox column
# [11] = compound 0.5 mM + Fe^3+/Fe^2+ (0.5 mM potassium ferricyanide), 1st Iox column
# [12] = compound + Fe^3+/Fe^2+, 5th Eox
# [13] = compound + Fe^3+/Fe^2+, 5th Iox column
# [14] = compound alone 0.5 mM in 0.1 M HClO4, 2nd Eox
# [15] = compound alone 0.5 mM in 0.1 M HClO4, 5th Eox
# [16] = compound alone 0.5 mM in 0.1 M HClO4, 5th Iox column
compound,measurement,setting,value
"Br.C/C(=N\Nc1nc(-c2ccc(O)c(C(N)=O)c2)cs1)c1ccc(O)cc1O [Compound 7a, (E)-1-(4-(3-carbamoyl-4-hydroxyphenyl)thiazol-2-yl)-2-(1-(2,4-dihydroxyphenyl)ethylidene)hydrazin-1-ium bromide]","Chelation Capacity (%), cupric ions",Cu^2+ chelation assay; 3.36 µg/mL,8.76%
same,"Chelation Capacity (%), cupric ions",Cu^2+ chelation assay; 6.72 µg/mL,16.70%
same,"Chelation Capacity (%), cupric ions",Cu^2+ chelation assay; 10.08 µg/mL,26.63%
same,"Chelation Capacity (%), cupric ions",Cu^2+ chelation assay; 13.44 µg/mL,34.35%
same,"Chelation Capacity (%), cupric ions",Cu^2+ chelation assay; 16.80 µg/mL,38.88%
same,% of ABTS˙^+ Scavenged,[1]; 0.5 µg/mL,11.62%
same,% of ABTS˙^+ Scavenged,[1]; 0.75 µg/mL,17.29%
same,% of ABTS˙^+ Scavenged,[1]; 1 µg/mL,22.69%
same,% of ABTS˙^+ Scavenged,[1]; 1.5 µg/mL,30.78%
same,% of ABTS˙^+ Scavenged,[1]; 2.5 µg/mL,49.37%
same,IC50,[1],2.52 µg/mL
same,MIC,E. coli ATCC 25922,> 100 µg/mL
same,MIC,S. aureus ATCC 25923,62.4 µg/mL
same,MIC,P. aeruginosa ATCC 27853,3.9 µg/mL
same,MIC,S. enterica ISM 83/37,> 100 µg/mL
same,MIC,[2],> 100 µg/mL
same,MIC,E. coli ATCC 8739,> 100 µg/mL
same,MIC,S. pyogenes ATCC 19615,31.2 µg/mL
same,MIC,C. albicans ATCC 102310,> 100 µg/mL
same,Ered (V),[3]; [4],0.164 V
same,Ired (μA),[3]; [5],−7.23 μA
same,Eox (V),[3]; [6],0.23 V
same,Iox (μA),[3]; [7],4.35 μA
same,Iox (μA),"[3]; compound + Fe^3+/Fe^2+, 3rd Iox column",1.75 μA
same,Iox (μA),[3]; [8],4.37 μA
same,Iox (μA),[3]; [9],1.95 μA
"Br.NC(=O)c1cc(-c2csc(N/N=C/c3ccc(O)cc3O)n2)ccc1O [Compound 7b, (E)-1-(4-(3-carbamoyl-4-hydroxyphenyl)thiazol-2-yl)-2-(2,4-dihydroxybenzylidene) hydrazin-1-ium bromide]","Chelation Capacity (%), cupric ions",Cu^2+ chelation assay; 3.36 µg/mL,7.23%
same,"Chelation Capacity (%), cupric ions",Cu^2+ chelation assay; 6.72 µg/mL,11.41%
same,"Chelation Capacity (%), cupric ions",Cu^2+ chelation assay; 10.08 µg/mL,14.46%
same,"Chelation Capacity (%), cupric ions",Cu^2+ chelation assay; 13.44 µg/mL,19.40%
same,"Chelation Capacity (%), cupric ions",Cu^2+ chelation assay; 16.80 µg/mL,22.72%
same,% of ABTS˙^+ Scavenged,[1]; 0.5 µg/mL,25.42%
same,% of ABTS˙^+ Scavenged,[1]; 0.75 µg/mL,30.15%
same,% of ABTS˙^+ Scavenged,[1]; 1 µg/mL,36.50%
same,% of ABTS˙^+ Scavenged,[1]; 1.5 µg/mL,49.20%
same,% of ABTS˙^+ Scavenged,[1]; 2.5 µg/mL,69.53%
same,IC50,[1],1.60 µg/mL
same,MIC,E. coli ATCC 25922,> 100 µg/mL
same,MIC,S. aureus ATCC 25923,> 100 µg/mL
same,MIC,P. aeruginosa ATCC 27853,15.6 µg/mL
same,MIC,S. enterica ISM 83/37,> 100 µg/mL
same,MIC,[2],> 100 µg/mL
same,MIC,E. coli ATCC 8739,> 100 µg/mL
same,MIC,S. pyogenes ATCC 19615,> 100 µg/mL
same,MIC,C. albicans ATCC 102310,> 100 µg/mL
same,Eox (V),[3]; [10],0.205 V
same,Iox (μA),[3]; [11],1.39 μA
same,Ered (V),[3]; [4],0.161 V
same,Ired (μA),[3]; [5],−6.8 μA
same,Eox (V),[3]; [6],0.305 V
same,Iox (μA),[3]; [7],6.08 μA
same,Eox (V),[3]; [12],0.926 V
same,Iox (μA),[3]; [13],6.34 μA
same,Eox (V),[3]; [14],0.347 V
same,Iox (μA),[3]; [8],2.07 μA
same,Eox (V),[3]; [15],1.065 V
same,Iox (μA),[3]; [16],2.64 μA
"C/C(=N\Nc1nc(-c2ccc(O)c(O)c2)cs1)c1ccc(O)cc1O.Cl [Compound 8a, (E)-2-(1-(2,4-dihydroxyphenyl)ethylidene)-1-(4-(3,4-dihydroxyphenyl)thiazol-2-yl)hydrazin-1-ium chloride]","Chelation Capacity (%), cupric ions",Cu^2+ chelation assay; 3.36 µg/mL,11.13%
same,"Chelation Capacity (%), cupric ions",Cu^2+ chelation assay; 6.72 µg/mL,17.02%
same,"Chelation Capacity (%), cupric ions",Cu^2+ chelation assay; 10.08 µg/mL,25.14%
same,"Chelation Capacity (%), cupric ions",Cu^2+ chelation assay; 13.44 µg/mL,34.16%
same,"Chelation Capacity (%), cupric ions",Cu^2+ chelation assay; 16.80 µg/mL,38.91%
same,% of ABTS˙^+ Scavenged,[1]; 0.5 µg/mL,25.40%
same,% of ABTS˙^+ Scavenged,[1]; 0.75 µg/mL,33.32%
same,% of ABTS˙^+ Scavenged,[1]; 1 µg/mL,41.07%
same,% of ABTS˙^+ Scavenged,[1]; 1.5 µg/mL,58.72%
same,% of ABTS˙^+ Scavenged,[1]; 2.5 µg/mL,90.97%
same,IC50,[1],1.25 µg/mL
same,MIC,"E. coli ATCC 25922; E. coli ATCC 25922, read-out: MIC",> 100 µg/mL
same,MIC,"S. aureus ATCC 25923; S. aureus ATCC 25923, read-out: MIC",> 100 µg/mL
same,MIC,"P. aeruginosa ATCC 27853; P. aeruginosa ATCC 27853, read-out: MIC",7.8 µg/mL
same,MIC,S. enterica ISM 83/37,> 100 µg/mL
same,MIC,"[2]; S. typhimurium ATCC 14028, read-out: MIC",> 100 µg/mL
same,MIC,"E. coli ATCC 8739; E. coli ATCC 8739, read-out: MIC",> 100 µg/mL
same,MIC,"S. pyogenes ATCC 19615; S. pyogenes ATCC 19615, read-out: MIC",> 100 µg/mL
same,MIC,"C. albicans ATCC 102310; C. albicans ATCC 102310, read-out: MIC",> 100 µg/mL
same,scavenging effect on ferric ion,[3]; 0.5 mM ferricyanide + 0.5 mM compound,highest scavenging effect
same,Eox (V),[3]; [10],0.072 V
same,Iox (μA),[3]; [11],0.17 μA
same,Ered (V),[3]; [4],0.054 V
same,Ired (μA),[3]; [5],−8.37 μA
same,Eox (V),[3]; [6],0.186 V
same,Iox (μA),[3]; [7],17.73 μA
same,Eox (V),"[3]; compound + Fe^3+/Fe^2+, 4th Eox column",0.452 V
same,Iox (μA),"[3]; compound + Fe^3+/Fe^2+, 4th Iox column",12.93 μA
same,Eox (V),[3]; [12],0.87 V
same,Iox (μA),[3]; [13],18.64 μA
same,Eox (V),[3]; [14],0.195 V
same,Ered (V),"[3]; compound alone 0.5 mM in 0.1 M HClO4, 2nd Ered column",0.296 V
same,Iox (μA),[3]; [8],2.32 μA
same,Ired (μA),"[3]; compound alone 0.5 mM in 0.1 M HClO4, 2nd Ired",−5.09 μA
same,Eox (V),"[3]; compound alone 0.5 mM in 0.1 M HClO4, 3rd Eox column",0.330 V
same,Iox (μA),[3]; [9],7.42 μA
same,Eox (V),"[3]; compound alone 0.5 mM in 0.1 M HClO4, 4th Eox column",0.460 V
same,Iox (μA),"[3]; compound alone 0.5 mM in 0.1 M HClO4, 4th Iox column",7.70 μA
same,Eox (V),[3]; [15],0.985 V
same,Iox (μA),[3]; [16],3.45 μA
